Assay results reported in PMC8622842, “Absolute Structure Determination and Kv1.5 Ion Channel Inhibition Activities of New Debromoaplysiatoxin Analogues” (Marine Drugs, 2021).
“Also recorded” adds a separate entry of the source. Like-named read-outs stand apart in the source and are kept apart here.

Assays:
Kv1.2 channel = system: Kv1.2 channel; set-up: method as in PMID 18313714; settings: read-out: IC50 against Kv1.2 channel; cited from earlier work
Artemia salina = assay: whole plant or invertebrate; type: in vivo; settings: for Effect on brine shrimp A. salina: at 30 µM
Procedure: Brine shrimp A. salina is an important model organism for ecosystems, and because of its high sensitivity and easy availability, it can be used in laboratory settings to study toxic effects and to provide safe results. A. salina or brine shrimp cysts were cultivated in 3.2% of saline water. After aeration with normal saline, cysts were placed at temperature for 24 h and then cultured. For toxicity screening, hatched larvae were collected and introduced in saline water. Add 0.9% brine and 30 larvae with good activity to each well to produce a 96-well test culture plate. New compounds of 0.1 µM, 1 µM, 10 µM and 30 µM and DAT were added to the experimental culture plate, respectively. Dimethyl sulfoxide (Aladdin, Shanghai, China) and dichloromethane (Aladdin, Shanghai, China) were added as blank control and positive control. The survival rate of A. salina was calculated after 24 h treatment at 25 °C.
Commercially available Artemia salina (A. salina) or brine shrimp cysts were purchased and cultivated in 3.2% of saline water. Before cultivation, the saline was aerated, and then cysts were kept at room temperature for 24 h. For toxicity screening, hatched larvae were collected and introduced in saline water. Add saline water and equivalent larvae in per well of 96 wells to make test culture plate. Aplysiatoxins with 0.1 μM, 1 μM, 10 μM, 30 μM was added to test culture plate, while DMSO and dichloromethane were added as blank control test and positive control separately. After 24 h in 25 °C, the percent of survival of A. salina was calculated.
Table S1.3.2.1. Effect of compounds 1-4 to Artemia salina (A. salina) . A. salina were treated with indicated concentration (0.1 µM, 1 µM, 10 µM, 30 µM) of dichloromethane (DCM), debromoaplysiatoxin (DAT), oscillatoxin J, oscillatoxin K, oscillatoxin L, oscillatoxin M, Methylenechloride, Control for 24 h. The percentage of A. salina with all different kinds of […]
Compounds Percentage of Survival of Artemia salina after 24 h (μM) […]
Figure S1.3.2.1. Effect of debromoaplysiatoxin to Artemia salina (A. salina). […]
(also on this page, place not known: compound s , , , , J K L M . USA) -1.5 -1.0 -0.5 0.0 0 20 40 60 80 100 LogCon.
(1 picture or pasted object on this page, not shown here)

human Kv1.5 channels = target: T1, human Kv1.5 channels (Homo sapiens, UniProt P22460); assay: Kv1.5 current inhibition, whole-cell electrophysiology in LTK cells stably expressing human Kv1.5; type: cell-based; settings: for Voltage dependence of Kv1.5 current inhibition: tested potentials -50 mV to 50 mV
T1 construct: expressed in transfected cells
Procedure: For culturing mouse L cells lacking thymidine kinase (LTK) cells stably expressing human Kv1.5 channels (LTK/Kv1.5), 10% fetal bovine serum (FBS), 10,000 U/ml penicillin G and 10 mg/ml streptomycin were added into Dulbecco’s Modified Eagle Media (DMEM). LTK/Kv1.5 cells were cultured in a 37 °C humidified incubator set to 5% CO2. The amount of 100 μg/ml Genetic (G418) was added into the culture media to select transgenic cells. When the cells grew to 75–85% confluence, they were passaged for subsequent electrophysiological records (Supplementary Materials 1.3.1.1).
LTK cells cultured for at least 24 h could be used for currents recording. For Kv1.5 potassium current recording, the recording micropipettes were pulled with a P97 microelectrode puller (Sutter, CA, USA) with a resistance of about 3 MΩ when filling with internal solution containing the following: KCl 140 mM, MgCl2 1 mM, EGTA 5 mM, HEPES 10 mM and MgATP 1 mM (pH was adjusted to 7.25 by KOH). The bath solution contained the following: NaCl 137 mM, KCl 5.4 mM, CaCl2 1.8 mM, MgCl2 1 mM, Glucose 10 mM and HEPES 10 mM (pH was adjusted to 7.4 by NaOH). Kv1.5 currents were recorded at room temperature (22–24 °C) by PulseMaster (Version 2.65, Heka, Lambrecht, Germany) via an EPC-10 USB amplifier (Heka, Lambrecht, Germany). In order to reduce recording errors, cells with seal resistance above 1 GΩ and series resistance that was fully compensated above 80% were used. Leak compensation was used to compensate the leak current and to subtract the capacitive artifacts (Supplementary Materials 1.3.1.2).
1.3.1. Ion Channel Experiment
For culturing mouse L cells lacking thymidine kinase (Ltk−) cells stably expressing human Kv1.5 channels (Ltk−/Kv1.5), 10% fetal bovine serum (FBS), 10,000 U/ml penicillin G and 10 mg/ml streptomycin were added into Dulbecco's Modified Eagle Media (DMEM). Ltk−/Kv1.5 cells were cultured in a 37 °C humidified incubator set to 5% CO2. 100 μg/ml Genetic (G418) was added into the culture media to select transgenic cells. When the cells grew to 75% - 85% confluent, they were passaged for subsequent electrophysiological records.μ1.3.1.2.
1.3.1.2. Electrophysiology
Ltk− cells cultured for at least 24 h could be used for currents recording. For Kv1.5 potassium currents recording, the recording micropipettes were pulled with a P97 microelectrode puller (Sutter, CA, USA) with a resistance about 3 MΩ when filling with internal solution containing: KCl 140 mM, MgCl2 1 mM, EGTA 5 mM, HEPES 10 mM, MgATP 1 mM (pH was adjusted to 7.25 by KOH). The bath solution contained: NaCl 137 mM, KCl 5.4 mM, CaCl2 1.8 mM, MgCl2 1 mM, Glucose 10 mM, HEPES 10 mM (pH was adjusted to 7.4 by NaOH). Kv1.5 currents were recorded at room temperature (22–24°C) by PulseMaster (Version 2.65, Heka, Lambrecht, Germany) via an EPC-10 USB amplifier (Heka, Lambrecht, Germany).
To reduce recording errors, cells with seal resistance above 1 GΩ and series resistance was fully compensated above 80% were used. Leak compensation was used to compensate the leak current and to subtract the capacitive artifacts
Cells with amplitudes above 1 nA, series resistance less than 10 MΩ and leak compensation below 200 pA were chosen for data analysis. Kv1.5 currents were evoked by a 300 ms depolarizing pulse from -50 mV to 50 mv in 20 mV increments from a holding potential of -70 mV. The current amplitude at the end of 300-ms pulse was measured. The IC50 and Hill coefficient (n) was obtained by fitting concentration dependence data to the equation of I (%) = 1/{1+(IC50/[D]) n} in which I (%) is the percent inhibition of current (I (%) = [1-Idrug/Icontrol] ×100) at test potential and [D] represents various drug concentrations . The measured error at the end of relative short 300 ms pulse was limited and the fitted IC 50 was acceptable. For steady-state activation curves were fitted with the Boltzmann function: G/Gmax =1/{1+exp[−(V-V1/2)/k]}, where V is a membrane potential and the Nernst K + equilibrium potential EK was calculated as−80 mV. G was […]

phosphor PKCδ = system: phosphor PKCδ; set-up: method as in PMID 35521179; settings: HepG2, 10 µM; cited from earlier work

T1 sequence (P22460 whole entry): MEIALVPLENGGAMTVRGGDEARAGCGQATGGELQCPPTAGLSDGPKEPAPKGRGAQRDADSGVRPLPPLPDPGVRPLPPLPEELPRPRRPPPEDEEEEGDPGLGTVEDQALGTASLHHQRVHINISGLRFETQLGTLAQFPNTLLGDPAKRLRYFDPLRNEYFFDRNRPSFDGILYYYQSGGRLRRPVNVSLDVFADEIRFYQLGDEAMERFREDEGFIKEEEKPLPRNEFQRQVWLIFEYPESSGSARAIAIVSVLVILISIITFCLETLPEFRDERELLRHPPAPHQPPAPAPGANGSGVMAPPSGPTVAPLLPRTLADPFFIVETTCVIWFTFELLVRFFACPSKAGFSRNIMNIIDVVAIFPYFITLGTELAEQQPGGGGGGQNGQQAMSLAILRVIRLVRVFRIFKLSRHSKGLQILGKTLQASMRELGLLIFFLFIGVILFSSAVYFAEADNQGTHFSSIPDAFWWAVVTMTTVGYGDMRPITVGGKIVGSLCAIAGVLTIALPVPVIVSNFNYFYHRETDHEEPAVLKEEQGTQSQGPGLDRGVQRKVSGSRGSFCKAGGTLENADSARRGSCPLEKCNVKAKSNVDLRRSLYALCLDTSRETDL

SMILES | IC50 (Kv1.2 channel) | Percentage of Survival of Artemia salina after 24 h (Artemia salina; 0.1 µM, 24 h) | Percentage of Survival of Artemia salina after 24 h (Artemia salina; 1 µM, 24 h) | Percentage of Survival of Artemia salina after 24 h (Artemia salina; 10 µM, 24 h) | Percentage of Survival of Artemia salina after 24 h (Artemia salina; 30 µM, 24 h) | Effect on brine shrimp A. salina (Artemia salina) | IC50 (human Kv1.5 channels; current at end of 300 ms pulse at 50 mV, 0.3-10 µM, mean ± SEM of 3 to 5 measurements, read-out: IC50 of Kv1.5 current inhibition) | Voltage dependence of Kv1.5 current inhibition (human Kv1.5 channels) | IC50 (human Kv1.5 channels) | Concentration at which survival of Artemia salina began to be affected (Artemia salina; 24 h) | IC50 (Artemia salina; Artemia salina, 0.05-0.5 µM, read-out: IC50 of brine shrimp toxicity (survival of A. salina)) | Expression of phosphor PKCδ (phosphor PKCδ) | Effect on Kv1.5 (human Kv1.5 channels; at 10 µM)
C=CC/C=C\C=C/[C@H]1O[C@H]2C[C@H]3O[C@H]4CC[C@H]5O[C@H]6C[C@@]7(C)O[C@@]8(C)[C@@H](O)C[C@H](CCCO)O[C@@H]8C[C@@H]7O[C@@H]6C[C@@H]5O[C@]4(C)C[C@]3(C)O[C@@H]2C=C[C@]1(C)O [Gambierol] | 0.0345 ± 0.0015 µM | – | – | – | – | – | – | – | – | – | – | – | –
CO[C@@H](CC[C@H](C)[C@H]1O[C@@]23C[C@H](OC(=O)C[C@H]([C@@H](C)O)OC(=O)/C=C(\O2)C(C)=CC3(C)C)[C@@H]1C)c1cccc(O)c1 [Compound 1, oscillatoxin J] | – | 96.62±0.37% | 95.87±0.7% | 95±1.52% | 93.61±5.11% | no apparent effect | 2.61 ± 0.91 µM | voltage dependently inhibited | – | – | – | – | –
ClCCl [Methylenechloride, dichloromethane, reference compound] | – | 0% | 0% | 0% | 0% | – | – | – | – | – | – | – | –
CO[C@@H](CC[C@H](C)[C@H]1O[C@]23C[C@H](OC(=O)C[C@H]([C@@H](C)O)OC(=O)[C@H](O)C(=C(C)CC2(C)C)O3)[C@@H]1C)c1cccc(O)c1 [Compound 2, oscillatoxin K] | – | 96.63±0.05% | 96.05±0.07% | 95.23±0.19% | 89.97±7.12% | no apparent effect | – | voltage dependently inhibited | 3.86 ± 1.03 µM | – | – | – | –
CO[C@@H](CC[C@H](C)[C@H]1O[C@@]23C[C@H](OC(=O)C[C@H]([C@@H](C)O)OC(=O)C[C@](O)(O2)[C@H](C)CC3(C)C)[C@@H]1C)c1cccc(O)c1 [Compound 5, debromoaplysiatoxin] | – | 87.19±0.74% | 2.96±2.1% | 0% | 0% | – | – | – | – | 100 nM | 0.34 ± 0.036 µM | strongly upregulating | –
CO[C@@H](CC[C@H](C)[C@H]1O[C@@]23C[C@H](OC(=O)C[C@H]([C@@H](C)O)OC(=O)C[C@](O)(O2)[C@@](C)(O)CC3(C)C)[C@@H]1C)c1cccc(O)c1 [Compound 3, oscillatoxin L] | – | 97.74±1.60% | 98.89±1.57% | 96.37±0.28% | 73.38±9.64% | no apparent effect | – | – | > 10 µM | – | – | – | minimum effects; also recorded: no apparent Kv1.5 inhibition activity
COC(CCC(C)C1OC23CC(OC(=O)CC(C(C)O)OC(=O)CC(C)(O2)C(=O)CC3(C)C)C1C)c1cccc(O)c1 (stereo not shown) [Compound 4, oscillatoxin M] | – | 95.13±1.09% | 96.29±0.11% | 96.15±0.12% | 82.27±6.13% | no apparent effect | – | voltage dependently inhibited | 3.79 ± 1.01 µM | – | – | – | –
